SMILES strings stand for the structures.

The nature of the series: Water solubility test: extraction from water into ethyl acetate, weight of residue. It counts as physicochemical. Conditions: for weight of the residue: 0.500 g dissolved in 10 mL water at room temperature, 10 mL ethyl acetate added, stirred 10 min, organic layer dried and concentrated. The method, then:
In 10 mL of water, 0.500 g of the compound represented by formula (14a-x) was dissolved at room temperature, and 10 mL of ethyl acetate was added thereto, and the resulting mixture was stirred for 10 min, and then the organic layer was dried over anhydrous sodium sulfate. The desiccant was filtered off, and then the filtrate was concentrated under reduced pressure. The weight of the residue was 0.101 g.
In 10 mL of water, 0.500 g of a compound represented by formula (15), namely, mevalonolactone was dissolved at room temperature, and 10 mL of ethyl acetate was added thereto, and the resulting mixture was stirred for 10 min, and then the organic layer was dried over anhydrous sodium sulfate. The desiccant was filtered off, and then the filtrate was concentrated under reduced pressure. Then weight of the residue was 0.080 g.

Regarding `C[C@H]1C(=O)OCC[C@@]1(C)O` [Compound 14a-x, α-methyl-mevalonolactone], the “weight of the residue” value is listed as 0.101 g. Besides, the “water solubility compared with the compound used in Comparative Example 1” value (conclusion from ethyl acetate extraction test) is recorded as “lower water solubility”.

`CC1(O)CCOC(=O)C1` (stereo not drawn) [Compound 15, mevalonolactone, reference compound]: the “weight of the residue” value was 0.080 g.

The values above are taken from patent US11312804B2, “Polymerizable compound, polymerizable composition, polymer, and photoresist composition” (JNC CORPORATION, priority 2018, dated 2022).
